Drawing on PubChem BioAssay AID330 (DTP/NCI, 2004), this text covers T/C for 17 compounds.

The assay concerns P388 leukemia ip, CD2F1 mice, survival T/C. Kind of assay: NCI In Vivo Anticancer Drug Screen. Data for tumor model P388 Leukemia (intraperitoneal) in CD2F1 (CDF1) mice. To be noted: endpoint: median survival time, higher = longer survival. How it is done: The antitumor activity of compounds was measured in mice bearing transplantable tumors. Survival or tumor size were measured and the results are expressed as the measurement made in the treated group (T) divided by the measurement made in the vehicle treated control group (C). The tumor model used in this assay is P388 Leukemia (intraperitoneal) in CD2F1 (CDF1) mice

The mark [1] stands for this setting: dose: 50.0 mg/kg/injection, schedule: Q01DX009 (ip), vehicle: saline with Tween-80.
Setting [2] is: dose: 50.0 mg/kg/injection, schedule: Q01DX005 (ip), vehicle: Klucel (hydroxypropylcellulose) (HPC).
[3] abbreviates: dose: 100.0 mg/kg/injection, schedule: Q01DX005 (ip), vehicle: Klucel (hydroxypropylcellulose) (HPC).
[4] abbreviates: dose: 200.0 mg/kg/injection, schedule: Q01DX005 (ip), vehicle: Klucel (hydroxypropylcellulose) (HPC).
[5] abbreviates: dose: 60.0 mg/kg/injection, schedule: Q01DX005 (ip), vehicle: saline with Tween-80.
The mark [6] stands for this setting: dose: 120.0 mg/kg/injection, schedule: Q01DX005 (ip), vehicle: saline with Tween-80.
Setting [7] is: dose: 240.0 mg/kg/injection, schedule: Q01DX005 (ip), vehicle: saline with Tween-80.
Setting [8] is: dose: 50.0 mg/kg/injection, schedule: Q01DX009 (ip), vehicle: saline.
[9] abbreviates: dose: 200.0 mg/kg/injection, schedule: Q01DX009 (ip), vehicle: saline.
The mark [10] stands for this setting: dose: 6.25 mg/kg/injection, schedule: Q01DX005 (ip), vehicle: Klucel (hydroxypropylcellulose) (HPC).
[11] abbreviates: dose: 12.5 mg/kg/injection, schedule: Q01DX005 (ip), vehicle: Klucel (hydroxypropylcellulose) (HPC).
Setting [12] is: dose: 25.0 mg/kg/injection, schedule: Q01DX005 (ip), vehicle: Klucel (hydroxypropylcellulose) (HPC).
Setting [13] is: dose: 50.0 mg/kg/injection, schedule: Q01DX005 (ip), vehicle: saline with Tween-80.
The mark [14] stands for this setting: dose: 100.0 mg/kg/injection, schedule: Q01DX005 (ip), vehicle: saline with Tween-80.
[15] abbreviates: dose: 200.0 mg/kg/injection, schedule: Q01DX005 (ip), vehicle: saline with Tween-80.

Several values for one entry are separate records, joined by “and”; a condition that tells them apart may be missing. Equal values may be shown once. Toxic doses and inconclusive results are not listed.

On to `[Cl][Hg][c]1ccccc1N=Nc1ccccc1I`, for which the T/C runs as follows: (dose: 12.5 mg/kg/injection, schedule: Q01DX009 (ip), vehicle: saline with Tween-80) 101 % of control; (dose: 25.0 mg/kg/injection, schedule: Q01DX009 (ip), vehicle: saline with Tween-80) 96 % of control; under setting [1], 113 % of control and 98 % of control; (dose: 100.0 mg/kg/injection, schedule: Q01DX009 (ip), vehicle: saline with Tween-80) 122 % of control and 94 % of control.

In the case of `CC1CC[N-]CC1.CC1CC[N-]CC1.CC1CC[N-]CC1.CC1CC[N-]CC1.CS(C)=O.CS(C)=O.[Cl-].[Cl-].[Cl-].[Cl-].[Pt+4].[Rh+3]`, the T/C (dose: 0.19 mg/kg/injection, schedule: Q01DX009 (ip), vehicle: saline) is 98 % of control; the T/C (dose: 0.38 mg/kg/injection, schedule: Q01DX009 (ip), vehicle: saline) was 114 % of control; the T/C (dose: 0.75 mg/kg/injection, schedule: Q01DX009 (ip), vehicle: saline) was 105 % of control; the T/C (dose: 1.5 mg/kg/injection, schedule: Q01DX009 (ip), vehicle: saline) is 108 % of control; the T/C (dose: 3.0 mg/kg/injection, schedule: Q01DX009 (ip), vehicle: saline) is 115 % of control.

As for `Cc1cccc([B-]23OCC[N+]2(CNC(=O)C2=C(O)C4(O)C(=O)C5=C(O)c6c(O)cccc6C(C)(O)C5CC4C(N(C)C)C2=O)CCO3)c1` (stereo not drawn), the T/C is 97 % of control under setting [2], 111 % of control under setting [3] and 118 % of control under setting [4].

Take `CC(C)(C)NC(=O)c1cccc(C(N)=O)n1`: the T/C is 94 % of control under setting [5], 93 % of control under setting [6] and 97 % of control under setting [7].

With `Cc1ccc(S(=O)CC(O)CO)cc1` (stereo not drawn), the T/C under setting [8] is 95 % of control; the T/C (dose: 100.0 mg/kg/injection, schedule: Q01DX009 (ip), vehicle: saline) was 101 % of control; the T/C under setting [9] was 108 % of control.

As for `COc1ccc2[nH]c3ccc4cc[n+](CCN5CCC(C6CCN(CC[n+]7ccc8ccc9[nH]c%10ccc(OC)cc%10c9c8c7)CC6)CC5)cc4c3c2c1`, the T/C is, setting by setting: (dose: 1.0 mg/kg/injection, schedule: Q01DX005 (ip), vehicle: water) 165 % of control; (dose: 1.56 mg/kg/injection, schedule: Q01DX005 (ip), vehicle: Klucel (hydroxypropylcellulose) (HPC)) 159 % of control and 160 % of control; (dose: 2.0 mg/kg/injection, schedule: Q01DX005 (ip), vehicle: water) 160 % of control and 170 % of control; (dose: 3.12 mg/kg/injection, schedule: Q01DX005 (ip), vehicle: Klucel (hydroxypropylcellulose) (HPC)) 150 % of control and 166 % of control; (dose: 4.0 mg/kg/injection, schedule: Q01DX005 (ip), vehicle: water) 161 % of control and 182 % of control; under setting [10], 167 % of control and 169 % of control. Further, the T/C is 161 % of control (dose: 6.25 mg/kg/injection, schedule: Q01DX005 (ip), vehicle: other); 163 % of control and 173 % of control and 191 % of control (dose: 8.0 mg/kg/injection, schedule: Q01DX005 (ip), vehicle: water); 179 % of control and 201 % of control under setting [11]; 193 % of control (dose: 12.5 mg/kg/injection, schedule: Q01DX005 (ip), vehicle: other); 160 % of control and 190 % of control and 221 % of control (dose: 16.0 mg/kg/injection, schedule: Q01DX005 (ip), vehicle: water); 179 % of control and 200 % of control and 212 % of control under setting [12]. The T/C reads like this: (dose: 25.0 mg/kg/injection, schedule: Q01DX005 (ip), vehicle: other) 175 % of control and 204 % of control; (dose: 32.0 mg/kg/injection, schedule: Q01DX005 (ip), vehicle: water) 167 % of control and 185 % of control and 223 % of control; under setting [2], 160 % of control and 224 % of control and 255 % of control; (dose: 50.0 mg/kg/injection, schedule: Q01DX005 (ip), vehicle: other) 153 % of control and 160 % of control; under setting [3], 193 % of control; under setting [4], 112 % of control.

In the case of `COC(=O)c1c(-c2ccc(OC)c(OC)c2)c(C=O)n(C)c1C`, the T/C is 99 % of control (dose: 100.0 mg/kg/injection, schedule: Q04DX002 (ip), vehicle: saline with Tween-80); 91 % of control (dose: 200.0 mg/kg/injection, schedule: Q04DX002 (ip), vehicle: saline with Tween-80); 90 % of control (dose: 400.0 mg/kg/injection, schedule: Q04DX002 (ip), vehicle: saline with Tween-80).

`O=S(=O)(Nc1ncccn1)c1ccc(NCc2c3ccccc3nc3cc(Cl)ccc23)cc1`: the T/C reads like this: under setting [5], 87 % of control; under setting [6], 86 % of control; under setting [7], 91 % of control.

Consider `COc1ccc2c(c1)OC(C)(C)C(c1ccccc1)=C2c1ccc2c(c1)NC(=O)CO2`, for which the T/C reads like this: under setting [13], 99 % of control; under setting [14], 90 % of control; under setting [15], 94 % of control.

Take `CC1=CC(=O)C=C(C)C1=O`: the T/C is, setting by setting: (dose: 1.56 mg/kg/injection, schedule: Q04DX003 (ip), vehicle: saline with Tween-80) 106 % of control; (dose: 3.12 mg/kg/injection, schedule: Q04DX003 (ip), vehicle: saline with Tween-80) 89 % of control; (dose: 6.25 mg/kg/injection, schedule: Q04DX003 (ip), vehicle: saline with Tween-80) 103 % of control.

With `N#Cc1c2ccccc2c(=O)n2ccccc12`, the T/C by setting is: (dose: 100.0 mg/kg/injection, schedule: Q04DX002 (ip), vehicle: Klucel (hydroxypropylcellulose) (HPC)) 94 % of control; (dose: 200.0 mg/kg/injection, schedule: Q04DX002 (ip), vehicle: Klucel (hydroxypropylcellulose) (HPC)) 88 % of control; (dose: 400.0 mg/kg/injection, schedule: Q04DX002 (ip), vehicle: Klucel (hydroxypropylcellulose) (HPC)) 94 % of control.

With `CNC1C(O)C2Oc3c(cc(O)c4c3C(=O)c3cc5c(c(O)c3C4=O)C(OC)CC(C)(O)C5)C(C)(O2)C1O` (stereo not drawn), the T/C reads like this: (dose: 0.62 mg/kg/injection, schedule: Q01DX009 (ip), vehicle: saline) 151 % of control; (dose: 1.25 mg/kg/injection, schedule: Q01DX009 (ip), vehicle: saline) 173 % of control; (dose: 2.5 mg/kg/injection, schedule: Q01DX009 (ip), vehicle: saline) 115 % of control.

As for `O=CC=O`, the T/C runs as follows: (dose: 25.0 mg/kg/injection, schedule: Q01DX009 (ip), vehicle: saline) 98 % of control; under setting [1], 116 % of control; under setting [8], 120 % of control; (dose: 200.0 mg/kg/injection, schedule: Q01DX009 (ip), vehicle: saline with Tween-80) 152 % of control; under setting [9], 88 % of control.

As to `CCN(CC)c1ccc2cc(-c3nc4ccccc4s3)c(=O)oc2c1`, the T/C (dose: 100.0 mg/kg/injection, schedule: Q04DX003 (ip), vehicle: Klucel (hydroxypropylcellulose) (HPC)) was 92 % of control; the T/C (dose: 200.0 mg/kg/injection, schedule: Q04DX003 (ip), vehicle: Klucel (hydroxypropylcellulose) (HPC)) was 92 % of control; the T/C (dose: 400.0 mg/kg/injection, schedule: Q04DX003 (ip), vehicle: Klucel (hydroxypropylcellulose) (HPC)) was 104 % of control.

For the compound `CC(C)CC1NC(=O)N(CCN(C)C)C1=O` (stereo not drawn), the T/C reads like this: under setting [13], 100 % of control; under setting [14], 106 % of control; under setting [15], 100 % of control.

As for `COc1ccc(Cc2cc(N=NC(N)=O)c(C)cc2O)cc1`, the T/C was 106 % of control under setting [11], 94 % of control under setting [12] and 97 % of control under setting [2].

As for `CCN(CC)CCOC(=O)c1c[nH]c2ccccc12`, the T/C reads like this: under setting [10], 100 % of control; under setting [11], 105 % of control; under setting [12], 105 % of control; under setting [2], 98 % of control and 95 % of control; under setting [3], 100 % of control.
